Measured values taken from the supplement of paper PMC8183993.

Key:
Conditions in all cases: 24 h
U2OS [1] = test: nuclei count in HPG assay relative to DMSO (% of DMSO); higher = more viable cells
Experimental: (§1)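 Validation screen in U2OS cells: hits tested at 1, 3 and 10 uM for 24 h in duplicate plates. Translation was read by OPP incorporation (1 h pulse) and HPG incorporation (30 min in methionine-free medium), quantified by high-throughput microscopy alongside nuclei counts. All values are normalised to DMSO (= 100).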

U2OS [2] = test: nuclei count in OPP assay relative to DMSO (% of DMSO); higher = more viable cells
Experimental: as §1

U2OS [3] = test: mean HPG incorporation (global translation) relative to DMSO (% of DMSO); higher = more protein synthesis
Experimental: as §1

U2OS [4] = test: mean OPP incorporation (global translation) relative to DMSO (% of DMSO); higher = more protein synthesis
Experimental: as §1

| SMILES | nuclei count in HPG assay (U2OS [1]; 1 µM) | nuclei count in HPG assay (U2OS [1]; 3 µM) | nuclei count in HPG assay (U2OS [1]; 10 µM) | nuclei count in OPP assay (U2OS [2]; 1 µM) | nuclei count in OPP assay (U2OS [2]; 3 µM) | nuclei count in OPP assay (U2OS [2]; 10 µM) | mean HPG incorporation (U2OS [3]; 1 µM) | mean HPG incorporation (U2OS [3]; 3 µM) | mean HPG incorporation (U2OS [3]; 10 µM) | mean OPP incorporation (U2OS [4]; 1 µM) | mean OPP incorporation (U2OS [4]; 3 µM) | mean OPP incorporation (U2OS [4]; 10 µM) |
| --- | --- | --- | --- | --- | --- | --- | --- | --- | --- | --- | --- | --- |
| COc1nc(-c2ccc3c(c2)OCO3)n(-c2ccc(NC(=O)CSc3ccccc3)cc2)n1 [SecinH3] | 107 | 96.8 | 100 | 105 | 105 | 98.9 | 107 | 100 | 93.3 | 106 | 117 | 121 |
| CC(C)n1nc(-c2cc3cc(O)ccc3[nH]2)c2c(N)ncnc21 [Torkinib (PP242)] | 96.6 | 83 | 76.6 | 96 | 81.7 | 74.7 | 42.9 | 32.7 | 30.9 | 58.4 | 37.4 | 27.3 |
| CCCc1cc(C)[nH]c(=O)c1CNC(=O)c1cc(-c2ccc(N3CCN(C(C)C)CC3)nc2)cc2c1cnn2C(C)C [UNC1999] | 93.7 | 94.7 | 80.6 | 89.3 | 93.6 | 73.9 | 111 | 119 | 77.1 | 108 | 119 | 122 |
